Values of other authors in patent publication US10194661B2, “Methods of making dazomet compositions” (priority 2013, dated 2019).

Experiments:
bees such as honeybees = settings: application to wood, which prevents exposure to bees

| SMILES | share of dazomet decomposition products (major product) (dazomet exposed to wood or moist soils) | theoretical maximum decomposition rate / stoichiometric conversion rate to MITC (in wood) | toxicity to bees (bees such as honeybees) |
| --- | --- | --- | --- |
| CN=C=S [MITC, methyl isothiocyanate] | approximately 98% | – | – |
| CN1CSC(=S)N(C)C1 [dazomet, Tetrahydro-3,5-dimethyl-2H-1,3,5-thiadiazine-2-thione] | – | approximately 45% | relatively non-toxic and harmless |
